# Experimental data reported in ChEMBL document CHEMBL4316653, “Cytotoxic Components from Hypericum elodeoides Targeting RXRα and Inducing HeLa Cell Apoptosis through Caspase-8 Activation and PARP Cleavage” (J Nat Prod, 2019).
# Active and inactive are the calls of the source. The rule behind the calls is not given here.
# Experiments:
# [1] = biological target: T1, Retinoic acid receptor RXR-alpha (Homo sapiens) (UniProt P19793); test: Transrepression of GAL4-fused RXRalpha LBD (unknown origin) expressed in 293T cells assessed as inhibition of 9-cis-RA-induced transcription at 50 uM measured after 12 hrs by dual-luciferase reporter gene assay; type: cell-based
# T1 sequence (whole entry): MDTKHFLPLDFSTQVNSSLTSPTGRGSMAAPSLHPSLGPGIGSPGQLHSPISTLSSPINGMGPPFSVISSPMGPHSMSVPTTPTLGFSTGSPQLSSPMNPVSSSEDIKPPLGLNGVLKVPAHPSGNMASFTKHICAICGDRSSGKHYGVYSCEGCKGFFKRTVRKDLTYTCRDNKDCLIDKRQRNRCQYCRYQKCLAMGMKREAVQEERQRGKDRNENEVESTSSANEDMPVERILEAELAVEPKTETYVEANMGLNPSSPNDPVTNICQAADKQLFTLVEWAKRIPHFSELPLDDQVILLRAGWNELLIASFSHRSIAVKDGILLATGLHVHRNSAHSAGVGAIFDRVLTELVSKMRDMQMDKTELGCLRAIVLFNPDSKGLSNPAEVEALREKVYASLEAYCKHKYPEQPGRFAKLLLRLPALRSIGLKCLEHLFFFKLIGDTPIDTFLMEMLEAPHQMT
# [2] = biological target: T1, Retinoic acid receptor RXR-alpha (Homo sapiens); test: (§1) Binding affinity to recombinant human RXRalpha LBD ([…] residues) expressed in Escherichia coli BL21 (DE3) by fluorescence quenching assay
# [3] = biological target: T1, Retinoic acid receptor RXR-alpha (Homo sapiens); test: Transrepression of GAL4-fused RXRalpha LBD (unknown origin) expressed in 293T cells assessed as inhibition of 9-cis-RA-induced transcription measured after 12 hrs by dual-luciferase reporter gene assay; type: cell-based
# HeLa [4] = test: Cytotoxicity against human HeLa cells assessed as inhibition of cell proliferation at 50 uM measured after 48 hrs by MTT assay; type: functional
# HepG2 [5] = test: Cytotoxicity against human HepG2 cells assessed as reduction in cell viability at 50 uM measured after 48 hrs by MTT assay; type: functional, cell-based
# MCF7 [6] = test: Cytotoxicity against human MCF7 cells assessed as reduction in cell viability at 50 uM measured after 48 hrs by MTT assay; type: functional, cell-based
# SMMC-7721 [7] = test: Cytotoxicity against human SMMC7721 cells assessed as reduction in cell viability at 50 uM measured after 48 hrs by MTT assay; type: functional, cell-based
# HeLa [8] = test: Induction of apoptosis in human HeLa cells assessed as increase in cleaved PARP expression at 20 uM by Western blot analysis; type: functional, cell-based; settings: TDE = time-dependent effect
# HeLa [9] = test: Induction of apoptosis in human HeLa cells assessed as increase in cleaved PARP expression after 24 hrs by Western blot analysis; type: functional, cell-based
# HeLa [10] = test: Induction of apoptosis in human HeLa cells assessed as increase in caspase-8 activity at 20 uM measured after 10 hrs by Caspase-Glo luminescence assay; type: functional, cell-based
# HeLa [11] = test: Induction of apoptosis in human HeLa cells assessed as increase in caspase-3 activity at 20 uM measured after 10 hrs by Caspase-Glo luminescence assay; type: functional, cell-based
# [12] = biological target: T2, Retinoic acid receptor RXR-alpha (Homo sapiens, UniProt P19793); test: as §1
# T2 sequence (P19793 whole entry): T1 sequence (whole entry)
# HeLa [13] = test: Cytotoxicity against human HeLa cells assessed as cell viability at 50 uM measured after 48 hrs by MTT assay; type: functional; settings: read-out: Activity
# HepG2 [14] = test: Cytotoxicity against human HepG2 cells assessed as cell viability at 50 uM measured after 48 hrs by MTT assay; type: functional; settings: HepG2, 48 h, read-out: Activity
# MCF7 [15] = test: Cytotoxicity against human MCF7 cells assessed as cell viability at 50 uM measured after 48 hrs by MTT assay; type: functional; settings: MCF7, 48 h, read-out: Activity
# SMMC-7721 [16] = test: Cytotoxicity against human SMMC7721 cells assessed as cell viability at 50 uM measured after 48 hrs by MTT assay; type: functional; settings: SMMC-7721, 48 h, read-out: Activity
# HeLa [17] = test: Induction of apoptosis in human HeLa cells assessed as increase in cleaved PARP expression at 50 uM by Western blot analysis; type: functional, cell-based; settings: TDE = time-dependent effect
# HeLa [18] = test: Induction of apoptosis in human HeLa cells assessed as increase in caspase-8 activity at 50 uM measured after 10 hrs by Caspase-Glo luminescence assay; type: functional, cell-based
# HeLa [19] = test: Induction of apoptosis in human HeLa cells assessed as increase in caspase-3 activity at 50 uM measured after 10 hrs by Caspase-Glo luminescence assay; type: functional, cell-based
smiles,measurement,setting,value
CC(C)c1cc(=O)c2c(O)cc(O)cc2o1,inhibition,[1],Active
Cc1cc2c(cc1-c1cc(/C=C/C(=O)O)ccc1O)C(C)(C)CCC2(C)C,Activity,[2],Dose-dependent effect
COc1cc(-c2cc(=O)c3c(O)cc(O)cc3o2)ccc1O,inhibition,[1],Active
same,inhibition,[3],Dose-dependent effect
CC(C)=CCOc1cc2c(=O)c3c(O)cc(O)cc3oc2cc1O,inhibition,[1],Active
same,inhibition,[3],Dose-dependent effect
same,inhibition at 50 µM,HeLa [4],> 50%
same,Activity,HepG2 [5],inactive
same,Activity,MCF7 [6],inactive
same,Activity,SMMC-7721 [7],inactive
same,Activity,HeLa [8],Tde
same,Activity,HeLa [9],Dose-dependent effect
same,Activity,HeLa [10],Active
same,Activity,HeLa [11],inactive
same,Activity,[2],Dose-dependent effect
same,Kd,[12],14 µM
COc1cc([C@H]2OC(=O)[C@H]3[C@@H]2CO[C@@H]3c2ccc(O)c(OC)c2)ccc1O,inhibition,[1],Active
same,viability at 50 µM,HeLa [13],< 50%
same,viability at 50 µM,HepG2 [14],< 50%
same,viability at 50 µM,MCF7 [15],< 50%
same,viability at 50 µM,SMMC-7721 [16],< 50%
COc1ccc2c(=O)c3cccc(O)c3oc2c1,viability at 50 µM,HeLa [13],< 50%
same,viability at 50 µM,HepG2 [14],< 50%
same,viability at 50 µM,MCF7 [15],< 50%
same,viability at 50 µM,SMMC-7721 [16],< 50%
CC[C@H](C)c1cc(=O)c2c(O)cc(O)cc2o1,inhibition,[1],Active
same,inhibition,[3],Dose-dependent effect
same,inhibition at 50 µM,HeLa [4],> 50%
same,Activity,HepG2 [5],inactive
same,Activity,MCF7 [6],inactive
same,Activity,SMMC-7721 [7],inactive
same,Activity,HeLa [17],Tde
same,Activity,HeLa [9],Dose-dependent effect
same,Activity,HeLa [18],Active
same,Activity,HeLa [19],inactive
same,Activity,[2],Dose-dependent effect
same,Kd,[12],68.3 µM
